Laboratory results as given in patent US20260070929A1, “METHODS AND COMPOSITIONS FOR MODULATING KRAS(G12D)” (Ranok Therapeutics (Hangzhou) Co. LTD., priority 2022, published 2026).
pEC50, pIC50: −log10 of the molar value. Like-named read-outs stand apart in the source and are kept apart here.

Experiments:
[1] = target: T1, KRAS(G12D)/SOS1 (Homo sapiens, UniProt P01116, G12D); assay: KRAS(G12D)/SOS1 homogeneous time-resolved fluorescence (HTRF) assay; format: binding; settings: absence of GTP; 4° C., 3 hr
T1 construct: purchased Cisbio 63ADK000CB17PEH
Method in brief: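 HTRF kit assay of compound-blocked KRAS(G12D)–SOS1 interaction, run without GTP. Compounds were tested as 3-fold dilutions from 20 µM to 1.02 nM and incubated with the reaction components for 3 hr at 4 °C, sealed. IC50 was taken as the concentration giving 50% of maximal inhibition.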

[2] = tested on: SW1990 pancreatic adenocarcinoma cells [homozygous G12D]; assay: Cancer cell line proliferation (CellTiter-Glo), SW1990; format: cell-based; settings: 72 hr treatment, read-out: SW1990 CTG (EC50)
Protocol: The following cancer cell lines were employed: AGS gastric carcinoma [heterozygous G12D](ATCC, CRL-1739); A-427 lung carcinoma [heterozygous G12D](ATCC, HTB-53); ASPC1 pancreatic adenocarcinoma [homozygous G12D](ATCC, CRL-1682) and SW1990 pancreatic adenocarcinoma [homozygous G12D](ATCC CRL-2172). Cell lines were cultured essentially according to ATCC recommendations.
AGS, A-427, ASPC1, SW1990, and GP2D cells were plated in 96-well tissue culture plates at 4,000 cells/well and incubated at 37° C./5% CO2 for 72 hr in 100 μl of media. 3-fold serial dilutions of each test compound were prepared ranging from 20 μM to 1.02 nM. Each cell line was then treated with test compounds at various concentrations with a final concentration of 0.5% DMSO/well, and then incubated at 37° C./5% CO2 for 72 hr. 100 µl of CellTiter-Glo® Reagent (Promega Corporation, Madison, WI) was added to each well and processed according manufacturer's protocol. Results were analyzed and EC50 values were calculated in GraphPad 7 software.

[3] = tested on: ASPC1 pancreatic adenocarcinoma cells [homozygous G12D]; assay: Cancer cell line proliferation (CellTiter-Glo), ASPC1; format: cell-based; settings: 72 hr treatment, read-out: ASPC-1 CTG (EC50)
Method in brief: (§1)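 Cells were seeded at 4,000/well and grown 72 hr at 37° C./5% CO2, then exposed for 72 hr to 3-fold serial compound dilutions prepared from 20 μM to 1.02 nM (0.5% DMSO final). Viability was read with CellTiter-Glo and EC50 values were calculated.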

[4] = tested on: A-427 lung carcinoma cells [heterozygous G12D]; assay: Cancer cell line proliferation (CellTiter-Glo), A-427; format: cell-based; settings: A-427 cells, 72 hr treatment, read-out: A427 CTG (EC50)
Method in brief: as §1

[5] = tested on: AGS gastric carcinoma cells [heterozygous G12D]; assay: Cancer cell line proliferation (CellTiter-Glo), AGS; format: cell-based; settings: 72 hr treatment, read-out: AGS CTG (EC50)
Method in brief: as §1

T1 sequence (P01116 1-188 isoform P01116-2 G12D): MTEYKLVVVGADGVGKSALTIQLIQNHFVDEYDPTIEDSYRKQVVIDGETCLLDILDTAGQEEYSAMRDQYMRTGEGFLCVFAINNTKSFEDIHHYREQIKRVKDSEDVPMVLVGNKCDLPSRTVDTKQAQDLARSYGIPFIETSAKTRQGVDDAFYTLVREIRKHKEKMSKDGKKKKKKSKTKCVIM

| SMILES | pIC50 [1] | pEC50 ([2]; Homo sapiens) | pEC50 ([3]; Homo sapiens, ASPC1, 72 h) | pEC50 ([4]; Homo sapiens) | pEC50 ([5]; Homo sapiens) | pEC50 [2] | pEC50 [3] | pEC50 [4] | pEC50 [5] |
| --- | --- | --- | --- | --- | --- | --- | --- | --- | --- |
| C#Cc1cccc2cc(O)cc(-c3ncc4c(N5CC6CCC(C5)N6)nc(OCC5(CN6CCC(C(=O)N7CCN(C(=O)C8CCN(Cc9ccc%10c(c9)CN(C(=O)c9cc(C(C)C)c(O)cc9O)C%10)CC8)CC7)CC6)CC5)nc4c3F)c12 [Compound 121] | > 7.00 | 6.00 to 7.00 | < 6.00 | < 6.00 | > 7.00 | – | – | – | – |
| C#Cc1cccc2cccc(-c3ncc4c(N5CC6CCC(C5)N6)nc(OC[C@@H]5C[C@H](CN6CCN(Cc7ccc8c(c7)CN(C(=O)c7cc(C(C)C)c(O)cc7O)C8)CC6)CN5C)nc4c3F)c12 [Compound 122] | > 7.00 | 6.00 to 7.00 | 6.00 to 7.00 | 6.00 to 7.00 | 6.00 to 7.00 | – | – | – | – |
| C#Cc1cccc2cc(O)cc(-c3ncc4c(N5CC6CCC(C5)N6)nc(OC[C@@H]5C[C@H](CN6CCN(Cc7ccc(-n8c(C(=O)NCC(F)(F)F)nnc8-c8cc(C(C)C)c(O)cc8O)cc7)CC6)CN5C)nc4c3F)c12 [Compound 123] | > 7.00 | > 7.00 | 6.00 to 7.00 | 6.00 to 7.00 | > 7.00 | – | – | – | – |
| C#Cc1cccc2cc(O)cc(-c3ncc4c(N5CC6CCC(C5)N6)nc(OCC5(CN6CCN(CC7CCN(c8ccc(-n9c(C(=O)NCC)nnc9-c9cc(C(C)C)c(O)cc9O)cc8)CC7)CC6)CC5)nc4c3F)c12 [Compound 124] | > 7.00 | > 7.00 | 6.00 to 7.00 | > 7.00 | > 7.00 | – | – | – | – |
| C#Cc1cccc2cc(O)cc(-c3ncc4c(N5CC6CCC(C5)N6)nc(OCC5(CN6CCN(CC7CCN(Cc8ccc9c(c8)CN(C(=O)c8cc(C(C)C)c(O)cc8O)C9)CC7)CC6)CC5)nc4c3F)c12 [Compound 125] | > 7.00 | – | – | – | – | > 7.00 | 6.00 to 7.00 | 6.00 to 7.00 | > 7.00 |
| C#Cc1cccc2cc(O)cc(-c3ncc4c(N5CC6CCC(C5)N6)nc(OCC5(CN6CCN(CC7CCN(Cc8ccc(-n9c(C(=O)NC(C)C(F)(F)F)nnc9-c9cc(C(C)C)c(O)cc9O)cc8)CC7)CC6)CC5)nc4c3F)c12 (stereo not shown) [Compound 126] | > 7.00 | > 7.00 | > 7.00 | > 7.00 | > 7.00 | – | – | – | – |
| C#Cc1cccc2cc(O)cc(-c3ncc4c(N5CC6CCC(C5)N6)nc(OCC5(CN6CCN(CC7CCN(Cc8ccc(-n9c(C(=O)NCC(F)(F)F)nnc9-c9cc(C(C)C)c(O)cc9O)cc8)CC7)CC6)CC5)nc4c3F)c12 [Compound 127] | > 7.00 | > 7.00 | > 7.00 | > 7.00 | > 7.00 | – | – | – | – |
| CC(C)c1cc(C(=O)N2Cc3ccc(CN4CCC(CN5CCN(CC6(COc7nc(N8CC9CCC(C8)N9)c8cnc(-c9cccc%10ccccc9%10)c(F)c8n7)CC6)CC5)CC4)cc3C2)c(O)cc1O [Compound 128] | > 7.00 | 6.00 to 7.00 | 6.00 to 7.00 | 6.00 to 7.00 | 6.00 to 7.00 | – | – | – | – |
| C#Cc1cccc2cc(O)cc(-c3ncc4c(N5CC6CNC(C6)C5)nc(OCC5(CN6CCN(CC7CCN(Cc8ccc9c(c8)CN(C(=O)c8cc(C(C)C)c(O)cc8O)C9)CC7)CC6)CC5)nc4c3F)c12 (stereo not shown) [Compound 129] | > 7.00 | 6.00 to 7.00 | < 6.00 | 6.00 to 7.00 | 6.00 to 7.00 | – | – | – | – |
| C#Cc1cccc2cc(O)cc(-c3ncc4c(N5CC6CCC(C5)N6)nc(OCC5(CN6CCN(Cc7ccc(-n8c(C(=O)NCC(F)(F)F)nnc8-c8cc(C(C)C)c(O)cc8O)cc7)CC6)CC5)nc4c3F)c12 [Compound 130] | > 7.00 | > 7.00 | 6.00 to 7.00 | > 7.00 | > 7.00 | – | – | – | – |
| C#Cc1cccc2cc(O)cc(-c3ncc4c(N5CC6CCC(C5)N6)nc(OCC5(CN6CCN(Cc7ccc8c(c7)CN(C(=O)c7cc(C(C)C)c(O)cc7O)C8)CC6)CC5)nc4c3F)c12 [Compound 131] | > 7.00 | > 7.00 | 6.00 to 7.00 | 6.00 to 7.00 | > 7.00 | – | – | – | – |
| C#Cc1cccc2cc(O)cc(-c3ncc4c(N5CC6CCC(C5)N6)nc(OCC5(CN6CCC(OC7CCN(Cc8ccc(-n9c(C(=O)NCC(F)(F)F)nnc9-c9cc(C(C)C)c(O)cc9O)cc8)CC7)CC6)CC5)nc4c3F)c12 [Compound 132] | > 7.00 | > 7.00 | > 7.00 | > 7.00 | > 7.00 | – | – | – | – |
| C#Cc1cccc2cc(O)cc(-c3ncc4c(N5CC6CCC(C5)N6C(=O)C(F)(F)F)nc(OCC5(CN6CCN(CC7CCN(Cc8ccc9c(c8)CN(C(=O)c8cc(C(C)C)c(O)cc8O)C9)CC7)CC6)CC5)nc4c3F)c12 [Compound 142] | 6.00 to 7.00 | 6.00 to 7.00 | 6.00 to 7.00 | 6.00 to 7.00 | 6.00 to 7.00 | – | – | – | – |
| C#Cc1cccc2cc(O)cc(-c3ncc4c(N5CC6CCC(C5)N6C(=O)C(F)(F)F)nc(OCC5(CN6CCN(CC7CCN(Cc8ccc(-n9c(C(=O)NCC(F)(F)F)nnc9-c9cc(C(C)C)c(O)cc9O)cc8)CC7)CC6)CC5)nc4c3F)c12 [Compound 143] | 6.00 to 7.00 | > 7.00 | 6.00 to 7.00 | > 7.00 | > 7.00 | – | – | – | – |
| C#Cc1cccc2cc(O)cc(-c3ncc4c(N5CC6CCC(C5)N6)nc(OCC5(CN6CCN(CC7CCN(Cc8ccc9c(c8)CN(C(=O)c8cc(C(C)C)c(OC)cc8O)C9)CC7)CC6)CC5)nc4c3F)c12 [Compound 144] | > 7.00 | 6.00 to 7.00 | 6.00 to 7.00 | 6.00 to 7.00 | > 7.00 | – | – | – | – |
| C#Cc1c(F)ccc2cc(O)cc(-c3ncc4c(N5CC6CCC(C5)N6)nc(OCC5(CN6CCN(CC7CCN(c8ccc(-n9c(C(=O)NCC)nnc9-c9cc(C(C)C)c(O)cc9O)cc8)CC7)CC6)CC5)nc4c3F)c12 [Compound 145] | > 7.00 | > 7.00 | 6.00 to 7.00 | > 7.00 | > 7.00 | – | – | – | – |
| C#Cc1c(F)ccc2cc(O)cc(-c3ncc4c(N5CC6CCC(C5)N6C(=O)C(F)(F)F)nc(OCC5(CN6CCN(CC7CCN(Cc8ccc(-n9c(C(=O)NC(C)C(F)(F)F)nnc9-c9cc(C(C)C)c(O)cc9O)cc8)CC7)CC6)CC5)nc4c3F)c12 (stereo not shown) [Compound 146] | 6.00 to 7.00 | > 7.00 | 6.00 to 7.00 | > 7.00 | > 7.00 | – | – | – | – |
| C#Cc1c(F)ccc2cc(O)cc(-c3ncc4c(N5CC6CCC(C5)N6C(=O)C(F)(F)F)nc(OCC5(CN6CCN(CC7CCN(Cc8ccc(-n9c(C(=O)NCC)nnc9-c9cc(C(C)C)c(O)cc9O)cc8)CC7)CC6)CC5)nc4c3F)c12 [Compound 147] | > 7.00 | > 7.00 | 6.00 to 7.00 | > 7.00 | > 7.00 | – | – | – | – |
| C#Cc1c(F)ccc2cc(O)cc(-c3ncc4c(N5CC6CCC(C5)N6)nc(OCC5(CN6CCN(CC7CCN(Cc8ccc(-n9c(C(=O)NCC)nnc9-c9cc(C(C)C)c(O)cc9O)cc8)CC7)CC6)CC5)nc4c3F)c12 [Compound 148] | > 7.00 | > 7.00 | > 7.00 | > 7.00 | > 7.00 | – | – | – | – |
| C#Cc1c(F)ccc2cc(O)cc(-c3ncc4c(N5CC6CCC(C5)N6)nc(OCC5(CN6CCN(CC7CCN(Cc8ccc(-n9c(C(=O)NCC)nnc9-c9cc(CC)c(O)cc9O)cc8)CC7)CC6)CC5)nc4c3F)c12 [Compound 149] | > 7.00 | > 7.00 | > 7.00 | > 7.00 | > 7.00 | – | – | – | – |
